Numbered stars: 1 amine (or outer) side, 2 acyl side, 3 side chain; on linkers, the order of the positions; unused ones are H or OH. Bridge positions count the residues as written; N and C are the ends. Square brackets hold non-standard residues; d marks the D form. Peptide text beside a SMILES is read from it. * marks the point of attachment. C20 diacid = O=C(O)CCCCCCCCCCCCCCCCCCC(=O)*; γGlu = O=C(O)[C@H](CCC(=O)[*:2])N[*:1]; Hyp = O=C(O)[C@@H]1C[C@@H](O)CN1; NMeI = CC[C@H](C)[C@H](NC)C(=O)O; Aze = O=C(O)[C@@H]1CCN1; Sar = CNCC(=O)O
How the values were obtained:
[1] = Solubility assessment (turbidity absorbance at 325 nm); format: physicochemical; conditions: stock 2 mg/ml diluted 1:1, ambient temperature (typically 25°C), n=1; for Solubility, Acetate buffer pH 4: 100 mM acetate buffer pH 4.0; for Solubility, Acetate buffer pH 5: 100 mM acetate buffer pH 5.0; for Solubility, Histidine buffer pH 6: 100 mM histidine buffer pH 6.0; for Solubility, Histidine buffer pH 7: 100 mM histidine buffer pH 7.0; for Solubility, Phosphate buffer pH 6: 100 mM phosphate buffer pH 6.0; for Solubility, Phosphate buffer pH 7: 100 mM phosphate buffer pH 7.0; for Solubility, Phosphate buffer pH 7.5: 100 mM phosphate buffer pH7.5
Method in brief: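 Stock 2 mg/ml peptide, H2O/HCl pH 2.5; 1:1 into 100 mM buffers: acetate pH 4.0/5.0, His pH 6.0/7.0, phosphate pH 6.0/7.0/7.5. A280 + A325, ~25°C, n=1. Soluble ≥ 1 mg/ml if A325 ≤ 0.02.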

Sprague Dawley (SD) rats = assay: Acute food intake and body weight in normal Sprague Dawley rats; format: in vivo; conditions: vehicle-corrected, dose 30 nmol/kg sc, once; for Body weight loss (%) after 96 hours: mean ± SEM, n = 8
Method in brief: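 Normal male-unspecified SD rats, n = 8 per group, given a single s.c. peptide dose of 30 nmol/kg just before dark phase, with vehicle and positive control groups. Food intake recorded at 0, 4, 7, 10, 24, 48, 72 and 96 h; body weight daily; means ± SEM.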

| SMILES | Solubility, Acetate buffer pH 4 [1] | Solubility, Acetate buffer pH 5 [1] | Solubility, Histidine buffer pH 6 [1] | Solubility, Histidine buffer pH 7 [1] | Solubility, Phosphate buffer pH 6 [1] | Solubility, Phosphate buffer pH 7 [1] | Solubility, Phosphate buffer pH 7.5 [1] | Food intake inhibition (%) after 48 hours (Sprague Dawley (SD) rats) | Body weight loss (%) after 96 hours (Sprague Dawley (SD) rats) |
| --- | --- | --- | --- | --- | --- | --- | --- | --- | --- |
| CC[C@H](C)[C@@H](C(=O)N[C@@H](CC(C)C)C(=O)N[C@@H](CO)C(=O)N[C@@H](CO)C(=O)N[C@H](C(=O)N[C@@H](CC(N)=O)C(=O)N[C@H](C(=O)NCC(=O)N[C@@H](CO)C(=O)N[C@@H](CC(N)=O)C(=O)N[C@H](C(=O)N1CCC[C@H]1C(N)=O)[C@@H](C)O)C(C)C)[C@@H](C)O)N(C)C(=O)[C@H](C)NC(=O)CN(C)C(=O)[C@H](Cc1ccccc1)NC(=O)[C@H](CC(N)=O)NC(=O)[C@H](CC(N)=O)NC(=O)[C@H](CO)NC(=O)[C@H](CO)NC(=O)[C@H](CCCNC(=N)N)NC(=O)[C@H](Cc1c[nH]cn1)NC(=O)[C@H](CC(C)C)NC(=O)[C@H](Cc1ccccc1)NC(=O)[C@H](CCC(=O)O)NC(=O)[C@H](C)NC(=O)[C@H](CC(C)C)NC(=O)[C@H](CCCNC(=N)N)NC(=O)[C@H](CCC(N)=O)NC(=O)[C@@H](NC(=O)[C@H](C)NC(=O)[C@@H]1CSSC[C@H](NC(=O)[C@H](Cc2c[nH]c3ccccc23)NC(=O)[C@H](CCCNC(=N)N)NC(=O)CC[C@H](NC(=O)CCCCCCCCCCCCCCCCCCC(=O)O)C(=O)O)C(=O)N[C@@H](CC(N)=O)C(=O)N[C@@H]([C@@H](C)O)C(=O)N[C@@H](C)C(=O)N[C@@H]([C@@H](C)O)C(=O)N1)[C@@H](C)O [Compound 174, [19CD]-isoGlu-RWC()NTATC()ATQRLAEFLHRSSNNF-Gly(Me)-A-Ile(Me)-LSSTNVGSNTP-NH2] ({C20 diacid-γGlu}-RWCNTATCATQRLAEFLHRSSNNF[Sar]A[NMeI]LSSTNVGSNTP-NH2; disulfide 3-8) | SS (SS indicates solubility ≥ 1mg/ml) | SS (SS indicates solubility ≥ 1mg/ml) | SS (SS indicates solubility ≥ 1mg/ml) | SS (SS indicates solubility ≥ 1mg/ml) | SS (SS indicates solubility ≥ 1mg/ml) | SS (SS indicates solubility ≥ 1mg/ml) | II (II indicates solubility ≤ 1 mg/ml) | 99% | 8 ± 1.4% |
| CC[C@H](C)[C@@H](C(=O)N[C@@H](CC(C)C)C(=O)N[C@@H](CO)C(=O)N[C@@H](CO)C(=O)N[C@H](C(=O)N[C@@H](CCC(=O)O)C(=O)N[C@H](C(=O)NCC(=O)N[C@@H](CO)C(=O)N[C@@H](CCC(=O)O)C(=O)N[C@H](C(=O)N1C[C@H](O)C[C@H]1C(N)=O)[C@@H](C)O)C(C)C)[C@@H](C)O)N(C)C(=O)[C@H](C)NC(=O)CN(C)C(=O)[C@H](Cc1ccccc1)NC(=O)[C@H](CO)NC(=O)[C@H](CO)NC(=O)[C@H](CCCNC(=N)N)NC(=O)[C@H](Cc1c[nH]cn1)NC(=O)[C@H](CC(C)C)NC(=O)[C@H](Cc1ccccc1)NC(=O)[C@H](CCC(=O)O)NC(=O)[C@H](C)NC(=O)[C@H](CC(C)C)NC(=O)[C@H](CCCNC(=N)N)NC(=O)[C@H](CCC(=O)O)NC(=O)[C@@H](NC(=O)[C@H](C)NC(=O)[C@@H]1CSSC[C@H](NC(=O)[C@H](CCCNC(=N)N)NC(=O)CC[C@H](NC(=O)CCCCCCCCCCCCCCCCCCC(=O)O)C(=O)O)C(=O)NCC(=O)N[C@@H]([C@@H](C)O)C(=O)N[C@@H](C)C(=O)N[C@@H]([C@@H](C)O)C(=O)N1)[C@@H](C)O [Compound 166, [19CD]-isoGlu-RC()GTATC()ATERLAEFLHRSSF-Gly(Me)-A-Ile(Me)-LSSTEVGSET-Hyp-NH2] ({C20 diacid-γGlu}-RCGTATCATERLAEFLHRSSF[Sar]A[NMeI]LSSTEVGSET[Hyp]-NH2; disulfide 2-7) | SS (SS indicates solubility ≥ 1mg/ml) | SS (SS indicates solubility ≥ 1mg/ml) | SS (SS indicates solubility ≥ 1mg/ml) | SS (SS indicates solubility ≥ 1mg/ml) | SS (SS indicates solubility ≥ 1mg/ml) | SS (SS indicates solubility ≥ 1mg/ml) | SS (SS indicates solubility ≥ 1mg/ml) | 99% | 12 ± 1.6% |
| CC[C@H](C)[C@@H](C(=O)N[C@@H](CC(C)C)C(=O)N[C@@H](CO)C(=O)N[C@@H](CO)C(=O)N[C@H](C(=O)N[C@@H](CCC(=O)O)C(=O)N[C@H](C(=O)NCC(=O)N[C@@H](CO)C(=O)N[C@@H](CCC(=O)O)C(=O)N[C@H](C(=O)N1CCC[C@H]1C(N)=O)[C@@H](C)O)C(C)C)[C@@H](C)O)N(C)C(=O)[C@H](C)NC(=O)CN(C)C(=O)[C@H](Cc1ccccc1)NC(=O)[C@H](CO)NC(=O)[C@H](CO)NC(=O)[C@H](CO)NC(=O)[C@H](CO)NC(=O)[C@H](CCCNC(=N)N)NC(=O)[C@H](Cc1c[nH]cn1)NC(=O)[C@H](CC(C)C)NC(=O)[C@H](Cc1ccccc1)NC(=O)[C@H](CCC(=O)O)NC(=O)[C@H](C)NC(=O)[C@H](CC(C)C)NC(=O)[C@H](CCCNC(=N)N)NC(=O)[C@H](CC(=O)O)NC(=O)[C@@H](NC(=O)[C@H](C)NC(=O)[C@@H]1CSSC[C@H](NC(=O)[C@H](CCCNC(=N)N)NC(=O)CC[C@H](NC(=O)CCCCCCCCCCCCCCCCCCC(=O)O)C(=O)O)C(=O)N[C@@H](CC(N)=O)C(=O)N[C@@H]([C@@H](C)O)C(=O)N[C@@H](C)C(=O)N[C@@H]([C@@H](C)O)C(=O)N1)[C@@H](C)O [Compound 120, [19CD]-isoGlu-RC()NTATC()ATDRLAEFLHRSSSSF-Gly(Me)-A-Ile(Me)-LSSTEVGSETP-NH2] ({C20 diacid-γGlu}-RCNTATCATDRLAEFLHRSSSSF[Sar]A[NMeI]LSSTEVGSETP-NH2; disulfide 2-7) | SS (SS indicates solubility ≥ 1mg/ml) | SS (SS indicates solubility ≥ 1mg/ml) | SS (SS indicates solubility ≥ 1mg/ml) | SS (SS indicates solubility ≥ 1mg/ml) | SS (SS indicates solubility ≥ 1mg/ml) | SS (SS indicates solubility ≥ 1mg/ml) | SS (SS indicates solubility ≥ 1mg/ml) | – | 12 ± 1.8% |
| CC[C@H](C)[C@@H](C(=O)N[C@@H](CC(C)C)C(=O)N[C@@H](CO)C(=O)N[C@@H](CO)C(=O)N[C@H](C(=O)N[C@@H](CC(N)=O)C(=O)N[C@H](C(=O)NCC(=O)N[C@@H](CO)C(=O)N[C@@H](CC(N)=O)C(=O)N[C@H](C(=O)N1CC[C@H]1C(N)=O)[C@@H](C)O)C(C)C)[C@@H](C)O)N(C)C(=O)[C@H](C)NC(=O)CN(C)C(=O)[C@H](Cc1ccccc1)NC(=O)[C@H](CC(N)=O)NC(=O)[C@H](CC(N)=O)NC(=O)[C@H](CO)NC(=O)[C@H](CO)NC(=O)[C@H](CCCNC(=N)N)NC(=O)[C@H](Cc1c[nH]cn1)NC(=O)[C@H](CC(C)C)NC(=O)[C@H](Cc1ccccc1)NC(=O)[C@H](CCC(=O)O)NC(=O)[C@H](C)NC(=O)[C@H](CC(C)C)NC(=O)[C@H](CCCNC(=N)N)NC(=O)[C@H](CCC(N)=O)NC(=O)[C@@H](NC(=O)[C@H](C)NC(=O)[C@@H]1CSSC[C@H](NC(=O)[C@H](CCCNC(=N)N)NC(=O)CC[C@H](NC(=O)CCCCCCCCCCCCCCCCCCC(=O)O)C(=O)O)C(=O)N[C@@H](CC(N)=O)C(=O)N[C@@H]([C@@H](C)O)C(=O)N[C@@H](C)C(=O)N[C@@H]([C@@H](C)O)C(=O)N1)[C@@H](C)O [Compound 107, [19CD]-isoGlu-RC()NTATC()ATQRLAEFLHRSSNNF-Gly(Me)-A-Ile(Me)-LSSTNVGSNT-Aze-NH2] ({C20 diacid-γGlu}-RCNTATCATQRLAEFLHRSSNNF[Sar]A[NMeI]LSSTNVGSNT[Aze]-NH2; disulfide 2-7) | SS (SS indicates solubility ≥ 1mg/ml) | SS (SS indicates solubility ≥ 1mg/ml) | SS (SS indicates solubility ≥ 1mg/ml) | SS (SS indicates solubility ≥ 1mg/ml) | SS (SS indicates solubility ≥ 1mg/ml) | SS (SS indicates solubility ≥ 1mg/ml) | SS (SS indicates solubility ≥ 1mg/ml) | 83% | 6 ± 1.5% |

— patent EP3046573B1, “AMYLIN ANALOGUES” (Zealand Pharma A/S, priority 2013, dated 2015)
